The values that follow come from US7550613B2, “Compounds” (Pronova Biopharma Norge AS, priority 2005, dated 2009).

This experiment in a line: Effect of DHA derivatives in adipose prone mice during 4 months of dietary interventions (Example 5a). Format: in vivo, male C57BL/6 mice. The following applies: for Body wt. gain / Body weight / NEFA / Insulin / TAGs: 4 months; for Body weight: * = significant vs cHF (P<0.05); for AUCglucose: intraperitoneal glucose tolerance test; for NEFA: non-esterified fatty acids; for Insulin: plasma; for TAGs: serum triglycerides. As for the experimental part:
All experiments were performed on male C57BL/6 mice, either a substrain C57BL/N (supplier: Charles River, Germany, n=160, experiments A-C, see below), or a substrain C57BL/6J (supplier: the Jackson laboratory, Bar Harbor, Me., USA, n=32, experiment D). Total numbers of animals used were higher (n=170 and 36, respectively), because of culling. In the latter case, animals were bred for several generations (<20) at the Institute of Physiology. At the beginning of the treatment, animals were 14-week-old and their body weight range was 23.6-27.1 g. One week before the study start, animals were sorted according to their body weight and assigned to subgroups (n=8) of similar mean body weight. This method allowed for culling of about 5-10% of animals showing the lowest and highest body weight, respectively. The animals eliminated from the study at this stage were sacrificed by cervical dislocation. Complete health check of mice was performed by the supplier Charles River and at the start of study serological tests were performed by ANLAB (Prague, Czech Republic). In addition, regular health checks were performed in the animal house in 3-mo-intervals using sentinel mice and serological examinations (ANLAB). In all the tests, the animals were free of specific pathogens.
• (i) Chow diet (ssniff R/M-H from SSNIFF Spezialdieten Gmbh, Soest, Germany; see also http://ssniff.de) with protein, fat and carbohydrate forming 33, 9, and 58 energy %, respectively • (ii) High-fat diet prepared in the laboratory (cHF diet) with protein, fat and carbohydrate forming 15, 59, and 26 energy %, respectively, and well characterized fatty acid composition (with most of the lipids coming from corn oil; see Ruzickova 2004) • (iii) cHF diets in which 0.15, 0.5, and 1.5% of fat (specifically the corn oil constituent) was replaced by various PRB-compounds, namely PRB1, PRB2, PRB5, PRB7, and PRB8, or by DHA. All these compounds were in the form of ethyl esters, provided by Pronova Biocare a.s. in sealed containers. Chemical composition of the PRB-compounds was unknown to the laboratory performing the experiments (Institute of Physiology, Academy of Sciences Prague, Czech Republic).
The study was based on 4 individual experiments. In each of the experiments, different PRB-compounds (or DHA, respectively) admixed to cHF diet in three different concentrations (0.15, 0.5, and 1.5% of the fat content) were tested. In each experiment, a subgroup of plain cHF diet-fed mice was included and served as a control. Mice were caged in groups of 4 and fed standard chow diet until 3 mo of age, when animals (n=8-13) were randomly assigned to the different test diets. After 2 mo on this new diet (at 5 mo of age), animals were fasted overnight and in the morning, intraperitoneal Glucose Tolerance Test (GTT) was performed. Animals were sacrificed after 4 months on the experimental diets, at 7 mo of age, and the end-point analysis were performed.

Consider `CC/C=C\C/C=C\C/C=C\C/C=C\C/C=C\C/C=C\CC(SCC)C(=O)OCC` (stereo not drawn) [PRB-7, α-tioethyl docosahexaenoic acid ethyl ester], for which, for the setting “0.15% concentration”, the Fasted glucose stood at 141 ± 9 mg/dL, the “Body wt. gain” value is given as 23.2 ± 0.7 grams, the Body weight is recorded as 47.4 ± 0.8* grams and the AUCglucose amounted to 1425 ± 97 mM × 180 min. Further, for the setting “0.15% concentration”, the NEFA is on record as 0.85 ± 0.06 mmol/L, the Insulin amounted to 3.76 ± 0.72 ng/mL and the TAGs amounted to 1.41 ± 0.11 mmol/L. For the same molecule, for the setting “0.5% concentration”, the Fasted glucose turned out to be 152 ± 6 mg/dL, the Body wt. gain worked out at 24.8 ± 0.8 grams, the Body weight came out at 48.8 ± 0.9 grams and the AUCglucose was 1674 ± 203 mM × 180 min. In addition, for the setting “0.5% concentration”, the NEFA amounted to 0.87 ± 0.04 mmol/L, the Insulin is recorded as 4.10 ± 0.57 ng/mL and the TAGs is reported as 1.42 ± 0.08 mmol/L. Where the note is “1.5% concentration”, this molecule gave a Fasted glucose of 120 ± 9 mg/dL, a Body wt. gain of 21.7 ± 0.9 grams, an AUCglucose of 1122 ± 73 mM × 180 min and an NEFA of 0.82 ± 0.06 mmol/L. For the setting “1.5% concentration”, this molecule yielded an Insulin of 4.42 ± 0.87 ng/mL and a TAGs of 1.15 ± 0.08 mmol/L. In addition, the Body weight (1.5% concentration in cHF diet) is on record as 45.9 ± 1.1* grams.
